The text below walks through data of patent US6346610B1, “Process for preparing antifungal V-28-3M” (Ajinomoto Co., Ltd., priority 1997, dated 2002).

Data set [1] in a line: antimycotic activity of V-28-3M. Particulars: V-28-3M obtained by Example 5, compared with V-28-3M described in JP-A-3-81225.
For data set [2] the following is noted: background statement, JP-A-63-218686 and JP-A-3-81225; cited from earlier work.
Data set [3] deals with animal cells. Particulars: background statement, JP-A-63-218686 and JP-A-3-81225; cited from earlier work.

Read-outs that look alike come from different tables or passages of the source.

For `COC(=O)C1C(O)CC2(O)CC(O)CC(O)CC(O)CC(O)CC(=O)CC(O)CC(=O)OC(C(C)CCC(O)CC(=O)c3ccc(N)cc3)C(C)\C=C/C=C\C=C\C=C\C=C\C=C\C=C\C(OC3OC(C)C(O)C(N)C3O)CC1O2` (stereo not drawn) [Example V-28-3M, V-28-3M], the antimycotic activity entry in data set [1] is on record as “the same result was also obtained”; in data set [2] it was “high”. Moreover, the “toxicity for animal cells” value in data set [3] is reported as “low”.
